Reference: PubChem BioAssay (NCI)
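Step 1: Grow cells in 96-well plates. Step 2: Expose to compound for 48 hours at 5 concentrations. Step 3: Interpolate endpoints linearly; if unreached, use highest concentration. The concentration for 50% growth inhibition is given as GI50. TGI marks complete inhibition of growth.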

Legend:
Assay in all cases: NCI-60 cell line screen, 48 h
[1] = test system: A498 renal
[2] = test system: A549 NSCLC
[3] = test system: M14 melanoma
[4] = test system: DU-145 prostate
[5] = test system: HCT-116 colon
[6] = test system: MOLT-4 leukemia
[7] = test system: SK-MEL-2 melanoma
[8] = test system: SW-620 colon
[9] = test system: RPMI-8226 leukemia
[10] = test system: UO-31 renal
[11] = test system: OVCAR-5 ovarian
[12] = test system: UACC-257 melanoma
[13] = test system: CCRF-CEM leukemia
[14] = test system: T-47D breast
[15] = test system: IGROV1 ovarian
[16] = test system: MDA-MB-435
[17] = test system: HCC-2998 colon
[18] = test system: HT29 colon
[19] = test system: SK-MEL-28 melanoma
[20] = test system: HCT-15 colon
[21] = test system: LOX IMVI melanoma
[22] = test system: KM12 colon
[23] = test system: HS 578T breast
[24] = test system: OVCAR-4 ovarian
[25] = test system: NCI-H460 lung
[26] = test system: HOP-62 NSCLC
[27] = test system: MCF7 breast
[28] = test system: PC-3 prostate
[29] = test system: EKVX NSCLC
[30] = test system: K-562 leukemia
[31] = test system: OVCAR-3 ovarian
[32] = test system: ACHN renal
[33] = test system: 786-0 renal
[34] = test system: UACC-62 melanoma
[35] = test system: SF-295 CNS
[36] = test system: SK-MEL-5 melanoma
[37] = test system: SNB-19 CNS
[38] = test system: SK-OV-3 ovarian
[39] = test system: MALME-3M melanoma
[40] = test system: SNB-75 CNS
[41] = test system: SR leukemia
[42] = test system: SN12C renal
[43] = test system: CAKI-1 renal
[44] = test system: HOP-92 NSCLC
[45] = test system: MDA-MB-231 breast
[46] = test system: U251 CNS
[47] = test system: RXF 393 renal
[48] = test system: HL-60(TB) leukemia
[49] = test system: NCI/ADR-RES ovarian
[50] = test system: NCI-H23 lung
[51] = test system: TK-10 renal
[52] = test system: SF-539 CNS
[53] = test system: OVCAR-8 ovarian
[54] = test system: NCI-H522 lung
[55] = test system: COLO 205 colon
[56] = test system: SF-268 CNS

Structure (SMILES): CC/C=C\C/C=C/C=C1/C(=O)C=C[C@@H]1C/C=C\CCCC(=O)OC
- GI50 [1]: 8.68 µM
- TGI [1]: 23 µM
- GI50 [2]: 5.71 µM
- TGI [2]: 52.6 µM
- GI50 [3]: 3.22 µM
- TGI [3]: 11.8 µM
- GI50 [4]: 4.55 µM
- TGI [4]: 17.4 µM
- GI50 [5]: 0.631 µM
- TGI [5]: 2.43 µM
- GI50 [6]: 1.36 µM
- TGI [6]: 11.2 µM
- GI50 [7]: 3.35 µM
- TGI [7]: 12.5 µM
- GI50 [8]: 1.11 µM
- TGI [8]: 7.68 µM
- GI50 [9]: 2.46 µM
- TGI [9]: 12.8 µM
- GI50 [10]: 1.64 µM
- TGI [10]: 3.6 µM
- GI50 [11]: 3.32 µM
- TGI [11]: 11.1 µM
- GI50 [12]: 3.27 µM
- TGI [12]: 11.4 µM
- GI50 [13]: 1.25 µM
- TGI [13]: 8.7 µM
- GI50 [14]: 3.9 µM
- TGI [14]: 24 µM
- GI50 [15]: 2.95 µM
- TGI [15]: 10.2 µM
- GI50 [16]: 2.05 µM
- TGI [16]: 5.08 µM
- GI50 [17]: 2.03 µM
- TGI [17]: 3.62 µM
- GI50 [18]: 2.21 µM
- TGI [18]: 5.57 µM
- GI50 [19]: 2.33 µM
- TGI [19]: 6.42 µM
- GI50 [20]: 2.2 µM
- TGI [20]: 7.89 µM
- GI50 [21]: 0.417 µM
- TGI [21]: 1.79 µM
- GI50 [22]: 2.24 µM
- TGI [22]: 6.59 µM
- GI50 [23]: 15.1 µM
- TGI [23]: > 100 µM
- GI50 [24]: 4.24 µM
- TGI [24]: 17.3 µM
- GI50 [25]: 3.07 µM
- TGI [25]: 8.85 µM
- GI50 [26]: 2.45 µM
- TGI [26]: 5.73 µM
- GI50 [27]: 0.5 µM
- TGI [27]: 12.5 µM
- GI50 [28]: 2.44 µM
- TGI [28]: 7.1 µM
- GI50 [29]: 3.89 µM
- TGI [29]: 20.1 µM
- GI50 [30]: 1.38 µM
- TGI [30]: 20.9 µM
- GI50 [31]: 1.54 µM
- TGI [31]: 6.35 µM
- GI50 [32]: 1.97 µM
- TGI [32]: 3.99 µM
- GI50 [33]: 2.71 µM
- TGI [33]: 6.91 µM
- GI50 [34]: 2.24 µM
- TGI [34]: 5.17 µM
- GI50 [35]: 3.5 µM
- TGI [35]: 14 µM
- GI50 [36]: 1.99 µM
- TGI [36]: 4.05 µM
- GI50 [37]: 5.06 µM
- TGI [37]: 19.3 µM
- GI50 [38]: 9.25 µM
- TGI [38]: 49.9 µM
- GI50 [39]: 2.5 µM
- TGI [39]: 6.64 µM
- GI50 [40]: 25 µM
- TGI [40]: > 100 µM
- GI50 [41]: 0.398 µM
- TGI [41]: 15.5 µM
- GI50 [42]: 2.7 µM
- TGI [42]: 7.79 µM
- GI50 [43]: 3.22 µM
- TGI [43]: 10.7 µM
- GI50 [44]: 3.07 µM
- TGI [44]: 8.49 µM
- GI50 [45]: 3.55 µM
- TGI [45]: 11.3 µM
- GI50 [46]: 2.35 µM
- TGI [46]: 6.83 µM
- GI50 [47]: 1.94 µM
- TGI [47]: 3.84 µM
- GI50 [48]: 2.24 µM
- TGI [48]: 12.5 µM
- GI50 [49]: 3.32 µM
- TGI [49]: > 100 µM
- GI50 [50]: 1.9 µM
- TGI [50]: 4.45 µM
- GI50 [51]: 4.13 µM
- TGI [51]: 15.4 µM
- GI50 [52]: 3.04 µM
- TGI [52]: 10 µM
- GI50 [53]: 2.75 µM
- TGI [53]: > 100 µM
- GI50 [54]: 1.78 µM
- TGI [54]: 4.24 µM
- GI50 [55]: 2.14 µM
- TGI [55]: 5.23 µM
- GI50 [56]: 3.81 µM
- TGI [56]: 24.7 µM
